The results in this text go back to patent US20240228494A1, “COMPOUNDS” (PATHIOS THERAPEUTICS LIMITED, priority 2021, published 2024).

Sequence of human recombinant GPR65 (Q8IYL9 whole entry): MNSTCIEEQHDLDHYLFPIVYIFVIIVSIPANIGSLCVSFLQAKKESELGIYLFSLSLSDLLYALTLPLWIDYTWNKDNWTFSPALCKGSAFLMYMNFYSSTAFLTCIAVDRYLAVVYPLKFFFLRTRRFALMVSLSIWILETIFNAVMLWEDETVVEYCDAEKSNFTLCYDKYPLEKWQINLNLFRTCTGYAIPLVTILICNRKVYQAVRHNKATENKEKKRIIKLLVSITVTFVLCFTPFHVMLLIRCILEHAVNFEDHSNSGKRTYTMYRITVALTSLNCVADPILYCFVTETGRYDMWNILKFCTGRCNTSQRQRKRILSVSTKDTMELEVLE

The first test concerns the target human recombinant GPR65 (Homo sapiens, UniProt Q8IYL9). In words: Human GPR65 cAMP HTRF antagonist assay.
Settings: not given
Format: cell-based. The source says:
In one preferred embodiment, the compound prevents the increase in cytoplasmic cAMP levels expected following GPR65 activation at acidic pH. This prevention of cAMP accumulation in turn prevents downstream signalling through ICER, as described above. The “Human GPR65 cyclic adenosine monophosphate (cAMP) Homogeneous Time Resolved Fluorescence (HTRF) antagonist assay”, or simply “cAMP assay”, as described in the accompanying examples, can be used to measure the potency of GPR65 modulators, which is expressed as the concentration of compound required to reduce the increase in cAMP concentration upon GPR65 activation by 50% (i.e. an IC50).
Human GPR65 Cyclic Adenosine Monophosphate (cAMP) Homogeneous Time Resolved Fluorescence (HTRF) Antagonist Assay Procedure
IC50 data was obtained by the following procedure:
1321N1 human astrocytoma cells stably expressing human recombinant GPR65 (1321N1-hrGPR65 cells, EuroscreenFast) were cultured according to the vendor's instructions.
Compounds were tested for their ability to antagonise GPR65, through measuring the concentration of cytoplasmic cAMP following treatment of the cells at a pH of 7.2 to activate GPR65 signalling and addition of the compound to be tested. The extent to which the expected rise in cAMP concentration upon GPR65 activation was suppressed by the added compound is indicative of its potency. The assay was carried out according to EuroscreenFast assay methodology as follows.
On the day of the assay, test compounds were added to 384-well, low volume, white microtiter plates by acoustic dispensing. KRH buffer (5 mM KCl, 1.25 mM MgSO4, 124 mM NaCl, 25 mM HEPES, 13.3 mM Glucose, 1.25 mM KH2PO4 and 1.45 mM CaCl2) was adjusted to pH 6.5, pH 7.6 and pH 8.4 by adding NaOH. 1321N1-hGPR65 cells were rapidly thawed and diluted in KRH, pH 7.6 prior to centrifugation at 300×g for 5 min and resuspension in assay buffer (KRH, pH 7.6, supplemented with 1 mM 3-isobutyl-1-methylxanthine (IBMX) and 200 μM ethylenediaminetetraacetic acid (EDTA)). Cells were added to assay plates at a density of 2,000 cells per well in a volume of 5 μl. Assay plates were briefly centrifuged at 100×g and then incubated at room temperature for 30 min. Cells were stimulated by the addition of 5 μL KRH, pH 6.5, to achieve an assay pH of 7.2, while control wells received 5 μl KRH, pH 8.4 to achieve an assay pH of 7.9. Assay plates were briefly centrifuged at 100×g and then incubated at room temperature for 30 min.
Accumulation of cAMP was detected by cAMP HTRF kit (Cisbio). d2-labeled cAMP and cryptate-labeled anti-cAMP antibody in Lysis and Detection Buffer (Cisbio) were added to assay plates, and the plates were incubated at room temperature for 1 h. HTRF measurements were performed using a Pherastar FSX instrument. Acceptor and donor emission signals were measured at 665 nm and 620 nm, respectively, and HTRF ratios were calculated as signal665 nm/signal620 nm×10^4. Data were normalised to high and low control values and fitted with 4-parameter logistic regression to determine hGPR65 IC50 values for the test compounds, which are shown in Table 1.
Take `O=c1cc2c(c[nH]1)[C@H]1CC[C@@H](C2)N1C(=S)Nc1cc(Cl)c(C(F)(F)F)cc1F` [Compound 2, (6S,9R)-N-(5-Chloro-2-fluoro-4-(trifluoromethyl)phenyl)-3-oxo-3,5,6,7,8,9-hexahydro-2H-6,9-epiminocyclohepta[c]pyridine-10-carbothioamide]: the 50% inhibitory concentration (IC50) was less than 500 nM.

In the case of `Fc1cc(C(F)(F)F)c(Cl)cc1NC(=S)N1[C@H]2CC[C@@H]1c1ccnc(F)c1C2` [Compound 4, (5R,8S)-N-(5-chloro-2-fluoro-4-(trifluoromethyl)phenyl)-1-fluoro-6,7,8,9-tetrahydro-5H-5,8-epiminocyclohepta[c]pyridine-10-carbothioamide], the half-maximal inhibitory concentration (IC50) is less than 500 nM.

For `Fc1cc(C(F)(F)F)c(Br)cc1NC(=S)N1[C@H]2CC[C@@H]1c1ccnc(F)c1C2` [Compound 1, (5R,8S)—N-(5-Bromo-2-fluoro-4-(trifluoromethyl)phenyl)-1-fluoro-6,7,8,9-tetrahydro-5H-5,8-epiminocyclohepta[c]pyridine-10-carbothioamide], the half-maximal inhibitory concentration (IC50) is less than 500 nM.

Turning to `O=C(Oc1ccc(Cl)c(Cl)c1)N1C2CCC1c1cncnc1C2` (racemic) [Compound 10, 3,4-dichlorophenyl (±)-6,7,8,9-tetrahydro-5H-5,8-epiminocyclohepta-[d]pyrimidine-10-carboxylate], the IC50 lay within 500 to 5000 nM.

`Fc1cc(Cl)c(Cl)cc1CN1[C@H]2CC[C@@H]1c1ccnc(F)c1C2` [Compound 9, (5R,8S)-10-(4,5-dichloro-2-fluorobenzyl)-1-fluoro-6,7,8,9-tetrahydro-5H-5,8-epiminocyclohepta[c]pyridine]: the IC50 was in the range of 500 to 5000 nM.

Regarding `S=C(Nc1ccc(Cl)c(Cl)c1)N1C2CCC1c1cncnc1C2` (racemic) [Compound 5, (±)-N-(3,4-dichlorophenyl)-6,7,8,9-tetrahydro-5H-5,8-epiminocyclo-hepta[d]pyrimidine-10-carbothioamide], the IC50 is less than 500 nM.

Regarding `N#C/N=C(/Nc1cc(C(F)(F)F)c(Cl)cc1F)N1[C@H]2CC[C@@H]1c1ccnc(F)c1C2` [Compound 11, (5R,8S)-N-(4-Chloro-2-fluoro-5-(trifluoromethyl)phenyl)-N′-cyano-1-fluoro-6,7,8,9-tetrahydro-5H-5,8-epimino-cyclohepta[c]pyridine-10-carboximidamide], the IC50 was less than 500 nM.

For the molecule `O/N=C(\Nc1cc(Cl)c(Cl)cc1F)N1[C@H]2CC[C@@H]1c1ccnc(F)c1C2` [Compound 15, (5R,8S)—N-(4,5-dichloro-2-fluorophenyl)-1-fluoro-N′-hydroxy-6,7,8,9-tetrahydro-5H-5,8-epiminocyclohepta[c]pyridine-10-carboximidamide], the IC50 is less than 500 nM.

Turning to `N#C/N=C(/Nc1cc(Cl)c(Cl)cc1F)N1[C@H]2CC[C@@H]1c1ccnc(F)c1C2` [Compound 12, (5R,8S)-N′-cyano-N-(4,5-dichloro-2-fluorophenyl)-1-fluoro-6,7,8,9-tetrahydro-5H-5,8-epiminocyclohepta-[c]pyridine-10-carboximidamide], the IC50 is less than 500 nM.

In the case of `Fc1cc(Cl)c(Cl)cc1NC(=S)N1[C@H]2CC[C@@H]1c1ccnc(F)c1C2` [Compound 3, (5R,8S)-N-(4,5-dichloro-2-fluorophenyl)-1-fluoro-6,7,8,9-tetrahydro-5H-5,8-epiminocyclo-hepta[c]pyridine-10-carbothioamide], the IC50 is less than 500 nM.

For `O=C(C(=O)N1[C@H]2CC[C@@H]1c1ccnc(F)c1C2)c1ccc(Cl)c(Cl)c1` [Compound 13, 1-(3,4-Dichlorophenyl)-2-((5R,8S)-1-fluoro-6,7,8,9-tetrahydro-5H-5,8-epiminocyclohepta[c]pyridin-10-yl)ethane-1,2-dione], the IC50 lay within 500 to 5000 nM.

In the case of `CO/N=C(\Nc1cc(Cl)c(Cl)cc1F)N1[C@H]2CC[C@@H]1c1ccnc(F)c1C2` [Compound 16, (5R,8S)—N-(4,5-dichloro-2-fluorophenyl)-1-fluoro-N′-methoxy-6,7,8,9-tetrahydro-5H-5,8-epiminocyclohepta[c]pyridine-10-carboximidamide], the IC50 is less than 500 nM.

Turning to `N#C/N=C(\Nc1ccc(Cl)c(Cl)c1)N1[C@H]2CC[C@@H]1c1ccnc(F)c1C2` [Compound 6, (5R,8S,)—N′-Cyano-N-(3,4-dichlorophenyl)-1-fluoro-6,7,8,9-tetrahydro-5H-5,8-epiminocyclohepta[c]pyridine-10-carboximidamide], the IC50 is less than 500 nM.

The same test, now with this note: 1321N1-hrGPR65 cells, assay pH 7.2, suppression of cAMP rise; read-out: hGPR65 IC50.
In the case of `O=C(C(O)c1ccc(Cl)c(Cl)c1)N1[C@H]2CC[C@@H]1c1ccnc(F)c1C2` (single isomer, unassigned) [Compound 7], the IC50 is more than 5000 nM.

For `N=C(Nc1cc(Cl)c(Cl)cc1F)N1[C@H]2CC[C@@H]1c1ccnc(F)c1C2` [Compound 17, (5R,8S)—N′-(4,5-dichloro-2-fluorophenyl)-1-fluoro-6,7,8,9-tetrahydro-5H-5,8-epiminocyclohepta[c]pyridine-10-carboximidamide], the half-maximal inhibitory concentration (IC50) is more than 5000 nM.

Consider `O=C(Cc1ccc(Cl)c(Cl)c1)N1[C@H]2CC[C@@H]1c1ccnc(F)c1C2` [Compound 8, 2-(3,4-dichlorophenyl)-1-((5R,8S)-1-fluoro-6,7,8,9-tetrahydro-5H-5,8-epimino-cyclohepta[c]pyridin-10-yl)ethan-1-one], for which the IC50 is 500 to 5000 nM.
